From article PMC11855827, “High-Throughput Screening of Five Compound Libraries for Anthelmintic Activity and Toxicity Leads to the Discovery of Two Flavonoid Compounds” (International Journal of Molecular Sciences, 2025)
“And” between values parts separate entries of the source, which are not always exact repeats. Identical values can stand only once.

Tested on: C. elegans
Details: Table S2, C. elegans SS assay, 110 μM, averages of 4 data points

Compound	Percentage of motility inhibition 0 h [%]	Percentage of motility inhibition 24 h
COc1ccc(-c2cc(=O)c3c(OC)c(OC)c(OC)cc3o2)cc1 [Scutellarein tetramethyl ether]	0	0%
COc1ccc2c(c1)[nH]c1c(C)nccc12.Cl [Harmine (hydrochloride)]	22	11%
C[C@@H]1O[C@@H](c2c(O)c([C@@H]3O[C@H](CO)[C@@H](O)[C@H](O)[C@H]3O)c(O)c3c(=O)cc(-c4ccc(O)cc4)oc23)[C@H](O)[C@H](O)[C@H]1O [Violanthin]	0	19%
CC(C)(O)[C@@H]1CC[C@](C)([C@H]2[C@@H](O)C[C@@]3(C)[C@@H]4C[C@H](O)[C@H]5C(C)(C)[C@@H](O[C@@H]6OC[C@@H](O)[C@H](O)[C@H]6O[C@@H]6O[C@H](CO)[C@@H](O)[C@H](O)[C@H]6O)CC[C@@]56C[C@@]46CC[C@]23C)O1 [Astragaloside III]	0	35%
COc1ccc(-c2oc3c(CC=C(C)C)c(O)cc(O)c3c(=O)c2O[C@@H]2O[C@@H](C)[C@H](O)[C@@H](O)[C@H]2O[C@@H]2O[C@H](CO)[C@@H](O)[C@H](O)[C@H]2O)cc1 [Sagittatoside A]	43	12%
C=CCCCCCCCCC(=O)O [10-Undecenoic acid]	0	6%
CC(=O)O[C@H]1C(=O)[C@@]2(C)[C@H]([C@H](OC(=O)c3ccccc3)[C@]3(O)C[C@H](OC(=O)[C@H](O)[C@@H](NC(=O)c4ccccc4)c4ccccc4)C(C)=C1C3(C)C)[C@]1(OC(C)=O)CO[C@@H]1C[C@@H]2O [7-epi-Taxol]	13	11%
CC(=O)[C@H]1CC[C@H]2[C@@H]3CC=C4C[C@@H](OS(=O)(=O)[O-])CC[C@]4(C)[C@H]3CC[C@]12C.[Na+] [Pregnenolone monosulfate (sodium)]	0	0%
COc1cc2c(cc1OC)C1Cc3ccc(OC)c(OC)c3CN1CC2.Cl (centres unmarked) [Tetrahydropalmatine (hydrochloride)]	0	9% and 7%
C[C@@]12C[C@@H](c3ccoc3)OC(=O)[C@@H]1CC[C@]1(C)[C@H]2[C@@H]2C=C[C@@]1(O)C(=O)O2 [Columbin]	0	1%
COc1ccc(-c2oc3c(CC=C(C)C)c(O[C@@H]4O[C@H](CO)[C@@H](O)[C@H](O)[C@H]4O)cc(O)c3c(=O)c2O[C@@H]2O[C@@H](C)[C@H](O)[C@@H](O)[C@H]2O[C@@H]2OC[C@@H](O)[C@H](O)[C@H]2O)cc1 [Epimedin B]	15	32%
Diniconazole	19	5%
CC(C)=CCCC(C)(OC1OC(CO)C(O)C(O)C1O)C1CCC2(C)C1C(O)CC1C3(C)CC(O)C(OC4OC(CO)C(O)C(O)C4OC4OC(CO)C(O)C(O)C4O)C(C)(C)C3CCC12C (centres unmarked) [Gypenoside XLVI]	1	2%
C/C=C/c1cc(OC)c(OC)cc1OC [alpha-Asarone]	49	29%
C=C1[C@H](OC(=O)/C=C(\C)CC)C[C@@H](C(C)C)[C@@H]2[C@@H]([C@@H](C)OC(C)=O)C(=O)C[C@@H]12 [Tussilagone]	12	31%
CO/N=C(\C(=O)N[C@@H]1C(=O)N2C(C(=O)[O-])=CCS[C@H]12)c1csc(N)n1.[Na+] [Ceftizoxime (sodium)]	0	3%
Cl.O=C(O)c1cn(-c2ccc(F)cc2)c2cc(N3CCNCC3)c(F)cc2c1=O [Sarafloxacin (hydrochloride)]	32	3%
COc1cc2c(cc1O)CC[N+](C)(C)[C@@H]2Cc1ccc(O)cc1.[OH-] [Lotusine (hydroxide)]	4	0%
COc1cc(/C=C/C(=O)OCC[N+](C)(C)C)cc(OC)c1O.N#C[S-] [Sinapine (thiocyanate)]	0	0%
Phillyrin	0	0%
C=CC1=C(C)c2cc3[n-]c(cc4[n-]c(cc5nc(cc1n2)C(C)=C5C=C)c(C)c4CCC(=O)O)c(CCC(=O)O)c3C.[Fe+2] [Ferroheme]	0	0%
O=C(O)[C@H]1O[C@@H](Oc2cc(O)c3c(=O)cc(-c4ccc(O)cc4)oc3c2)[C@H](O)[C@@H](O)[C@@H]1O [Apigenin‐7‐glucuronide]	23	3%

Compound	Percentage of motility inhibition 0 h [%]	Percentage of motility inhibition 24 h
Clc1ccc(C(Cn2ccnc2)OCc2csc3c(Cl)cccc23)c(Cl)c1.O=[N+]([O-])O (centres unmarked) [Sertaconazole (nitrate)]	40	6%
C[C@]1(C(=O)O)CC[C@]2(C)CC[C@]3(C)C(=CC(=O)[C@@H]4[C@@]5(C)CC[C@H](O[C@@H]6O[C@H](C(=O)O)[C@@H](O)[C@H](O)[C@H]6O[C@@H]6O[C@H](C(=O)O)[C@@H](O)[C@H](O)[C@H]6O)[C@](C)(CO)[C@@H]5CC[C@]43C)[C@@H]2C1 [Licoricesaponin G2]	2	10%
COC(=O)c1ccc(O)cn1 [Methyl 5‐hydroxypyridine‐2‐carboxylate]	7	1%
NCCCC[C@H](N)C(=O)O.O [L-Lysine hydrate]	8	2%
Br.CO[C@H]1CC=C2CCN3CCC4=C(CC(=O)OC4)[C@]23C1 [Dihydro‐β‐er ythroidine (hydrobromide)]	7	6%
CCCCCCCCCCCCCCCC(=O)NCc1ccccc1 [N‐Benzylpalmitamide]	0	20%
CCN(CC)c1nc2c(S(=O)(=O)c3ccc(Cl)cc3)nnn2c2cc(OC)c(OC)cc12 [Targocil]	21	11%
Cc1ccc(CCCO)c(NCc2ccc3nc(NCCCN4CCOCC4)n(Cc4nc(C)ccc4O)c3c2)c1 [TMC353121]	25	4%
Cc1ncc(C[n+]2csc(CCO)c2C)c(N)n1.O=[N+]([O-])[O-] [Thiamine nitrate]	12	1%
CO/N=C(\C(=O)N[C@@H]1C(=O)N2C(C(=O)O)=C(CSc3nnnn3C)CS[C@H]12)c1csc(N)n1.CO/N=C(\C(=O)N[C@@H]1C(=O)N2C(C(=O)O)=C(CSc3nnnn3C)CS[C@H]12)c1csc(N)n1.Cl [Cefmenoxime (hydrochloride)]	15	0%
COc1ccc(-c2oc3c(OC)c(OC)c(OC)c(OC)c3c(=O)c2OC)cc1OC [3,5,6,7,8,3',4'‐Heptemthoxyflavone]	34	6%
COc1ccc2c(c1O)-c1c(O)c(OC)cc3c1[C@H](C2)[N+](C)(C)CC3.[I-] [(+)‐Magnoflorine (iodide)]	10	8%
C=C(C(=O)OC1C[C@@H]2[C@H]3O[C@H]3[C@H](C1)N2C)c1ccccc1 (some centres unmarked) [Aposcopolamine]	14	10%
C[N+](C)(C)[C@@H](Cc1c[nH]c(=S)[nH]1)C(=O)[O-] [Ergothioneine]	16	0%
C[C@@]1(F)[C@H](O)[C@@H](CO)O[C@H]1n1ccc(=O)[nH]c1=O [PSI‐6206]	19	5%
COc1ccc(-c2cc(=O)c3c(OC)cc(OC)cc3o2)cc1 [5,7,4'‐Trimethoxyflavone]	0	1%
CC1(C)[C@@H](O[C@H]2O[C@H](C(=O)O)[C@@H](O)[C@H](O)[C@H]2O[C@@H]2O[C@H](C(=O)O)[C@@H](O)[C@H](O)[C@H]2O)CC[C@]2(C)[C@H]3C(=O)C=C4[C@@H]5C[C@@](C)(C(=O)O)CC[C@]5(C)CC[C@@]4(C)[C@]3(C)CC[C@@H]12 [Ammonium glycyrrhizinate]	20	11%
CC(C)=C[C@H]1C[C@](C)(O)[C@@H]2[C@H]3CC[C@@H]4[C@@]5(C)CC[C@H](O[C@@H]6OC[C@H](O)[C@H](O[C@@H]7O[C@H](CO)[C@@H](O)[C@H](O)[C@H]7O)[C@H]6O[C@@H]6O[C@@H](CO)[C@H](O)[C@H]6O)C(C)(C)[C@@H]5CC[C@@]4(C)[C@@]34CO[C@@]2(C4)O1 [Bacopaside X]	9	35%
CC(C)=CCC[C@@](O)(CO[C@@H]1O[C@H](CO)[C@@H](O)[C@H](O)[C@H]1O)[C@H]1CC[C@]2(C)[C@@H]1CC[C@@H]1[C@@]3(C=O)CC[C@H](O[C@@H]4OC[C@H](O)[C@H](O[C@@H]5OC[C@@H](O)[C@H](O)[C@H]5O)[C@H]4O[C@@H]4O[C@@H](C)[C@H](O)[C@@H](O)[C@H]4O)C(C)(C)[C@@H]3CC[C@]12C [Gypenoside XLIX]	3	6%
C=C(C(=O)O)[C@@H]1CC[C@@H](C)[C@@H]2CCC(C)=C[C@@H]21 [Artemisic acid]	1	14%
CCCCCC(=O)Oc1c(Br)cc(Br)cc1Br [2,4,6‐Tribromophenyl caproate]	48	57%
